Assay results reported in PubChem BioAssay (NCI).
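GI50 = concentration required for 50% inhibition of growth. TGI marks complete inhibition of growth.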

Assays:
Assay in all cases: inhibition of tumour cell growth, NCI panel, 384-well format
HS 578T breast = tested on: HS 578T breast
SNB-19 CNS = tested on: SNB-19 CNS
OVCAR-8 ovarian = tested on: OVCAR-8 ovarian
IGROV1 ovarian = tested on: IGROV1 ovarian
SW-620 colon = tested on: SW-620 colon
RPMI-8226 leukemia = tested on: RPMI-8226 leukemia
HOP-92 NSCLC = tested on: HOP-92 NSCLC
CCRF-CEM leukemia = tested on: CCRF-CEM leukemia
OVCAR-3 ovarian = tested on: OVCAR-3 ovarian
HCT-116 colon = tested on: HCT-116 colon
OVCAR-5 ovarian = tested on: OVCAR-5 ovarian
MDA-MB-435 melanoma = tested on: MDA-MB-435 melanoma
SK-OV-3 ovarian = tested on: SK-OV-3 ovarian
HCT-15 colon = tested on: HCT-15 colon
PC-3 prostate = tested on: PC-3 prostate
786-0 renal = tested on: 786-0 renal
CAKI-1 renal = tested on: CAKI-1 renal
MDA-MB-468 breast = tested on: MDA-MB-468 breast
SK-MEL-28 melanoma = tested on: SK-MEL-28 melanoma
A498 renal = tested on: A498 renal
UO-31 renal = tested on: UO-31 renal
RXF 393 renal = tested on: RXF 393 renal
LOX IMVI melanoma = tested on: LOX IMVI melanoma
HCC-2998 colon = tested on: HCC-2998 colon
SF-295 CNS = tested on: SF-295 CNS
HL-60(TB) leukemia = tested on: HL-60(TB) leukemia
HOP-62 NSCLC = tested on: HOP-62 NSCLC
MALME-3M melanoma = tested on: MALME-3M melanoma
A549 NSCLC = tested on: A549 NSCLC
UACC-257 melanoma = tested on: UACC-257 melanoma
KM12 colon = tested on: KM12 colon
TK-10 renal = tested on: TK-10 renal
SF-539 CNS = tested on: SF-539 CNS
NCI-H460 NSCLC = tested on: NCI-H460 NSCLC
DU-145 prostate = tested on: DU-145 prostate
ACHN renal = tested on: ACHN renal
U251 glioblastoma = tested on: U251 glioblastoma
SF-268 CNS = tested on: SF-268 CNS
T-47D breast = tested on: T-47D breast
COLO 205 colon = tested on: COLO 205 colon
NCI/ADR-RES ovarian = tested on: NCI/ADR-RES ovarian
OVCAR-4 ovarian = tested on: OVCAR-4 ovarian
M14 melanoma = tested on: M14 melanoma
BT-549 breast = tested on: BT-549 breast
HT29 colon = tested on: HT29 colon
NCI-H322M lung = tested on: NCI-H322M lung
SNB-75 CNS = tested on: SNB-75 CNS
MCF7 breast = tested on: MCF7 breast
K-562 leukemia = tested on: K-562 leukemia
NCI-H522 lung = tested on: NCI-H522 lung
SK-MEL-2 melanoma = tested on: SK-MEL-2 melanoma
SN12C renal = tested on: SN12C renal
NCI-H23 lung = tested on: NCI-H23 lung
NCI-H226 lung = tested on: NCI-H226 lung
EKVX NSCLC = tested on: EKVX NSCLC
UACC-62 melanoma = tested on: UACC-62 melanoma
MOLT-4 leukemia = tested on: MOLT-4 leukemia
MDA-MB-231 breast = tested on: MDA-MB-231 breast
SK-MEL-5 melanoma = tested on: SK-MEL-5 melanoma

Q: For Nc1ncnc2c1c(-c1cccc(OCc3ccccc3)c1)cn2C1CC(CN2CCCC2)C1 (stereo not drawn), which GI50 (HS 578T breast) is on record?
A: 1580 nM

Q: What about the TGI (HS 578T breast) of the same molecule?
A: 2950 nM

Q: And the GI50 (SNB-19 CNS)?
A: 3000 nM

Q: What about the TGI (SNB-19 CNS) of the same molecule?
A: 8690 nM

Q: And the GI50 (OVCAR-8 ovarian)?
A: 1790 nM

Q: What about the TGI (OVCAR-8 ovarian) of the same molecule?
A: 3510 nM

Q: What about the GI50 (IGROV1 ovarian) of the same molecule?
A: 3460 nM

Q: What about the TGI (IGROV1 ovarian) of the same molecule?
A: 12300 nM

Q: And the GI50 (SW-620 colon)?
A: 1410 nM

Q: And the TGI (SW-620 colon)?
A: 2960 nM

Q: What about the GI50 (RPMI-8226 leukemia) of the same molecule?
A: 1720 nM

Q: And the TGI (RPMI-8226 leukemia)?
A: 3110 nM

Q: What about the GI50 (HOP-92 NSCLC) of the same molecule?
A: 1460 nM

Q: What about the TGI (HOP-92 NSCLC) of the same molecule?
A: 2820 nM

Q: What about the GI50 (CCRF-CEM leukemia) of the same molecule?
A: 1850 nM

Q: And the TGI (CCRF-CEM leukemia)?
A: 3260 nM

Q: What about the GI50 (OVCAR-3 ovarian) of the same molecule?
A: 1740 nM

Q: And the TGI (OVCAR-3 ovarian)?
A: 3430 nM

Q: What about the GI50 (HCT-116 colon) of the same molecule?
A: 1560 nM

Q: And the TGI (HCT-116 colon)?
A: 2990 nM

Q: And the GI50 (OVCAR-5 ovarian)?
A: 1520 nM

Q: What about the TGI (OVCAR-5 ovarian) of the same molecule?
A: 3810 nM

Q: And the GI50 (MDA-MB-435 melanoma)?
A: 1490 nM

Q: What about the TGI (MDA-MB-435 melanoma) of the same molecule?
A: 2840 nM

Q: What about the GI50 (SK-OV-3 ovarian) of the same molecule?
A: 1740 nM

Q: What about the TGI (SK-OV-3 ovarian) of the same molecule?
A: 3290 nM

Q: What about the GI50 (HCT-15 colon) of the same molecule?
A: 1570 nM

Q: What about the TGI (HCT-15 colon) of the same molecule?
A: 3280 nM

Q: What about the GI50 (PC-3 prostate) of the same molecule?
A: 1780 nM

Q: What about the TGI (PC-3 prostate) of the same molecule?
A: 3510 nM

Q: And the GI50 ([…]-0 renal)?
A: 1690 nM

Q: What about the TGI (786-0 renal) of the same molecule?
A: 3080 nM

Q: And the GI50 (CAKI-1 renal)?
A: 1660 nM

Q: And the TGI (CAKI-1 renal)?
A: 3220 nM

Q: What about the GI50 (MDA-MB-468 breast) of the same molecule?
A: 1520 nM

Q: What about the TGI (MDA-MB-468 breast) of the same molecule?
A: 2970 nM

Q: What about the GI50 (SK-MEL-28 melanoma) of the same molecule?
A: 1570 nM

Q: And the TGI (SK-MEL-28 melanoma)?
A: 2920 nM

Q: What about the GI50 (A498 renal) of the same molecule?
A: 1730 nM

Q: What about the TGI (A498 renal) of the same molecule?
A: 3300 nM

Q: What about the GI50 (UO-31 renal) of the same molecule?
A: 1520 nM

Q: What about the TGI (UO-31 renal) of the same molecule?
A: 2880 nM

Q: And the GI50 (RXF 393 renal)?
A: 1480 nM

Q: And the TGI (RXF 393 renal)?
A: 2830 nM

Q: What about the GI50 (LOX IMVI melanoma) of the same molecule?
A: 1670 nM

Q: What about the TGI (LOX IMVI melanoma) of the same molecule?
A: 3050 nM

Q: What about the GI50 (HCC-2998 colon) of the same molecule?
A: 1290 nM

Q: What about the TGI (HCC-2998 colon) of the same molecule?
A: 2630 nM

Q: What about the GI50 (SF-295 CNS) of the same molecule?
A: 1760 nM

Q: What about the TGI (SF-295 CNS) of the same molecule?
A: 3220 nM

Q: What about the GI50 (HL-60(TB) leukemia) of the same molecule?
A: 324 nM

Q: What about the TGI (HL-60(TB) leukemia) of the same molecule?
A: 1050 nM

Q: And the GI50 (HOP-62 NSCLC)?
A: 1870 nM

Q: What about the TGI (HOP-62 NSCLC) of the same molecule?
A: 3490 nM

Q: What about the GI50 (MALME-3M melanoma) of the same molecule?
A: 1250 nM

Q: And the TGI (MALME-3M melanoma)?
A: 2520 nM

Q: What about the GI50 (A549 NSCLC) of the same molecule?
A: 1670 nM

Q: What about the TGI (A549 NSCLC) of the same molecule?
A: 3410 nM

Q: And the GI50 (UACC-257 melanoma)?
A: 1480 nM

Q: What about the TGI (UACC-257 melanoma) of the same molecule?
A: 2810 nM

Q: And the GI50 (KM12 colon)?
A: 1910 nM

Q: What about the TGI (KM12 colon) of the same molecule?
A: 4160 nM

Q: What about the GI50 (TK-10 renal) of the same molecule?
A: 1600 nM

Q: And the TGI (TK-10 renal)?
A: 3170 nM

Q: What about the GI50 (SF-539 CNS) of the same molecule?
A: 1800 nM

Q: And the TGI (SF-539 CNS)?
A: 3210 nM

Q: What about the GI50 (NCI-H460 NSCLC) of the same molecule?
A: 1320 nM

Q: And the TGI (NCI-H460 NSCLC)?
A: 2750 nM

Q: And the GI50 (DU-145 prostate)?
A: 3020 nM

Q: And the TGI (DU-145 prostate)?
A: 11900 nM

Q: And the GI50 (ACHN renal)?
A: 2040 nM

Q: And the TGI (ACHN renal)?
A: 4450 nM

Q: What about the GI50 (U251 glioblastoma) of the same molecule?
A: 1890 nM

Q: What about the TGI (U251 glioblastoma) of the same molecule?
A: 3380 nM

Q: And the GI50 (SF-268 CNS)?
A: 1760 nM

Q: And the TGI (SF-268 CNS)?
A: 3190 nM

Q: What about the GI50 (T-47D breast) of the same molecule?
A: 1540 nM

Q: And the TGI (T-47D breast)?
A: 3040 nM

Q: What about the GI50 (COLO 205 colon) of the same molecule?
A: 442 nM

Q: What about the TGI (COLO 205 colon) of the same molecule?
A: 1640 nM

Q: What about the GI50 (NCI/ADR-RES ovarian) of the same molecule?
A: 2290 nM

Q: And the TGI (NCI/ADR-RES ovarian)?
A: 6640 nM

Q: And the GI50 (OVCAR-4 ovarian)?
A: 2030 nM

Q: What about the TGI (OVCAR-4 ovarian) of the same molecule?
A: 5180 nM

Q: What about the GI50 (M14 melanoma) of the same molecule?
A: 1400 nM

Q: And the TGI (M14 melanoma)?
A: 2720 nM

Q: And the GI50 (BT-549 breast)?
A: 1550 nM

Q: And the TGI (BT-549 breast)?
A: 2980 nM

Q: And the GI50 (HT29 colon)?
A: 769 nM

Q: What about the TGI (HT29 colon) of the same molecule?
A: 2060 nM

Q: And the GI50 (NCI-H322M lung)?
A: 1860 nM

Q: And the TGI (NCI-H322M lung)?
A: 4940 nM

Q: And the GI50 (SNB-75 CNS)?
A: 1900 nM

Q: And the TGI (SNB-75 CNS)?
A: 3340 nM

Q: What about the GI50 (MCF7 breast) of the same molecule?
A: 353 nM

Q: And the TGI (MCF7 breast)?
A: 1690 nM

Q: What about the GI50 (K-562 leukemia) of the same molecule?
A: 1560 nM

Q: What about the TGI (K-562 leukemia) of the same molecule?
A: 2950 nM

Q: And the GI50 (NCI-H522 lung)?
A: 1900 nM

Q: What about the TGI (NCI-H522 lung) of the same molecule?
A: 3500 nM

Q: And the GI50 (SK-MEL-2 melanoma)?
A: 1060 nM

Q: And the TGI (SK-MEL-2 melanoma)?
A: 2260 nM

Q: And the GI50 (SN12C renal)?
A: 1770 nM

Q: What about the TGI (SN12C renal) of the same molecule?
A: 3420 nM

Q: What about the GI50 (NCI-H23 lung) of the same molecule?
A: 1380 nM

Q: What about the TGI (NCI-H23 lung) of the same molecule?
A: 3560 nM

Q: And the GI50 (NCI-H226 lung)?
A: 1470 nM

Q: And the TGI (NCI-H226 lung)?
A: 4310 nM

Q: And the GI50 (EKVX NSCLC)?
A: 1360 nM

Q: What about the TGI (EKVX NSCLC) of the same molecule?
A: 3740 nM

Q: What about the GI50 (UACC-62 melanoma) of the same molecule?
A: 1690 nM

Q: And the TGI (UACC-62 melanoma)?
A: 3070 nM

Q: What about the GI50 (MOLT-4 leukemia) of the same molecule?
A: 1780 nM

Q: What about the TGI (MOLT-4 leukemia) of the same molecule?
A: 3170 nM

Q: What about the GI50 (MDA-MB-231 breast) of the same molecule?
A: 2050 nM

Q: And the TGI (MDA-MB-231 breast)?
A: 4560 nM

Q: And the GI50 (SK-MEL-5 melanoma)?
A: 1200 nM

Q: And the TGI (SK-MEL-5 melanoma)?
A: 2450 nM
